Test results taken from ChEMBL document CHEMBL1138389, “Identification of selective neuropeptide Y2 peptide agonists” (Bioorg Med Chem Lett, 2007).
pEC50, pKi: −log10 of the molar value. Bridge positions count the residues as written; N and C are the ends. Peptide text beside a SMILES is read from it.

Key:
[1] = molecular target: T1, Neuropeptide Y receptor type 2 (Homo sapiens, UniProt P49146); assay: Agonist activity at human NPY2 receptor expressed in human KAN-TS cells by [35S]GTP-gamma-S incorporation assay; format: functional, cell-based
T1 sequence (P49146 whole entry): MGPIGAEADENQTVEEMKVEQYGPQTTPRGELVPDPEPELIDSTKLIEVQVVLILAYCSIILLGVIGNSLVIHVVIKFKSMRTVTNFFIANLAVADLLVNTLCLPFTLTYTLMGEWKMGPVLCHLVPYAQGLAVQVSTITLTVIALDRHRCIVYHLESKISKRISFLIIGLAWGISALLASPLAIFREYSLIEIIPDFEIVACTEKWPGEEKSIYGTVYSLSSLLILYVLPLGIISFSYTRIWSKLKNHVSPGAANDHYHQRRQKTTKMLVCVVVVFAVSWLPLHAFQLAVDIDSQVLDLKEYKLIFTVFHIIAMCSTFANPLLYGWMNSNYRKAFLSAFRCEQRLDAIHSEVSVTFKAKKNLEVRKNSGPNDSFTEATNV

[2] = molecular target: T2, Neuropeptide Y receptor type 1 (Homo sapiens, UniProt P25929); assay: Displacement of [125I]PYY from NPY1 receptor expressed in human SK-N-MC cells; format: cell-based
T2 sequence (P25929 whole entry): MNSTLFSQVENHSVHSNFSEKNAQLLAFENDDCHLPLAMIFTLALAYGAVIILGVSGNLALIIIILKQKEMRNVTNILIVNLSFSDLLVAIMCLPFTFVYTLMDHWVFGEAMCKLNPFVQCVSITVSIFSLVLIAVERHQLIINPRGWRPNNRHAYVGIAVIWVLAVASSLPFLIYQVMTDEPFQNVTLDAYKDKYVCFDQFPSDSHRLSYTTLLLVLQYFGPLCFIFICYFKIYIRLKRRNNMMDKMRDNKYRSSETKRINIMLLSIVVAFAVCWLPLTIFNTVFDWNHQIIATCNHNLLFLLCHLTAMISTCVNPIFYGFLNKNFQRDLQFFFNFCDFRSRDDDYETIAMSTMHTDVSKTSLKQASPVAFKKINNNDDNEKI

[3] = molecular target: T1, Neuropeptide Y receptor type 2; assay: Displacement of human [125I]PYY from NPY2 receptor expressed in human KAN-TS cells; format: cell-based
[4] = molecular target: T3, Neuropeptide Y receptor type 5 (Homo sapiens, UniProt Q15761); assay: Displacement of [125I]PYY from NPY5 receptor expressed in human HEK293 cells; format: cell-based
T3 sequence (Q15761 whole entry): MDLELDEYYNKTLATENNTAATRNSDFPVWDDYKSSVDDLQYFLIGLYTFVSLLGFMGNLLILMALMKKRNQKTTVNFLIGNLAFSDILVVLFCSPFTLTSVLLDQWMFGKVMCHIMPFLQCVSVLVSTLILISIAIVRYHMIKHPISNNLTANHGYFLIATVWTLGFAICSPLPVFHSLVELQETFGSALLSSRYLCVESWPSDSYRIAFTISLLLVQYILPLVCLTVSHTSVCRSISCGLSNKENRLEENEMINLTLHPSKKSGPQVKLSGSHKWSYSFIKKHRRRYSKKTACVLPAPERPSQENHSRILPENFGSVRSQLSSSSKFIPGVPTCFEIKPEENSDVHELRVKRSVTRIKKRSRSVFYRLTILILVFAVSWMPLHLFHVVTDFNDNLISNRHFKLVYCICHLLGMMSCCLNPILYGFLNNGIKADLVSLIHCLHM

| Molecule | pEC50 [1] | pKi [2] | pKi [3] | pEC50 ([1]; kan-ts) | pKi ([4]; hek293) | pKi ([2]; sk-n-mc) | pKi ([3]; kan-ts) | pKi [4] |
| --- | --- | --- | --- | --- | --- | --- | --- | --- |
| CC(=O)N[C@@H](C)C(=O)N[C@@H](CO)C(=O)N[C@@H](CC(C)C)C(=O)N[C@@H](CCCNC(=N)N)C(=O)N[C@@H](Cc1cnc[nH]1)C(=O)N[C@@H](Cc1ccc(O)cc1)C(=O)N[C@@H](CC(C)C)C(=O)N[C@@H](CC(N)=O)C(=O)N[C@@H](CC(C)C)C(=O)N[C@H](C(=O)N[C@H](C(=O)N[C@@H](CCCNC(=N)N)C(=O)N[C@@H](CCC(N)=O)C(=O)N[C@@H](CCCNC(=N)N)C(=O)N[C@@H](Cc1ccc(O)cc1)C(N)=O)[C@@H](C)O)C(C)C | 7.89 | 6.93 | 8.05 | – | – | – | – | – |
| CC[C@H](C)[C@@H]1NC(=O)[C@H](CC(C)C)NC(=O)[C@H](CC(N)=O)NC(=O)[C@@H](NC(=O)[C@H](Cc2ccc(O)cc2)NC(=O)[C@H](Cc2cnc[nH]2)NC(=O)[C@H](CCCN=C(N)N)NC(C)=O)CCCCNC(=O)CC[C@@H](C(=O)N[C@@H](CCCN=C(N)N)C(=O)N[C@@H](CCC(N)=O)C(=O)N[C@@H](CCCN=C(N)N)C(=O)N[C@@H](Cc2ccc(O)cc2)C(N)=O)NC1=O (Ac-RHYKNLIERQRY-NH2; lactam 4-8) | – | – | – | 7.51 | < 6.00 | < 6.00 | 7.12 | – |
| Ac-HYLNLVTRQRY-NH2 | 6.37 | < 6.00 | 6.17 | – | – | – | – | < 6.00 |
